Laboratory results: patent US7271154B2, “Antibiotic conjugates” (Merckle GmbH, priority 2002, dated 2007)

Tests used:
[1] = compared with erythromycin; cited from earlier work
PMN = experiment: Antimicrobial agent uptake by PMN (bioassay); format: in vitro ADME; details: intracellular/extracellular concentration, 1 h

CC[C@H]1OC(=O)[C@H](C)[C@@H](O[C@H]2C[C@@](C)(OC)[C@@H](O)[C@H](C)O2)[C@H](C)[C@@H](O[C@@H]2O[C@H](C)C[C@H](N(C)C)[C@H]2O)[C@](C)(O)C[C@@H](C)CN(C)[C@H](C)[C@@H](O)[C@]1(C)O [Azithromycin]
stability in the presence of acids [1]: more stable than erythromycin

C[C@H]1COc2c(N3CCN(C)CC3)c(F)cc3c(=O)c(C(=O)O)cn1c23 [Levofloxacin]
I/E ratio (PMN): 4.8

COc1c(N2C[C@@H]3CCCN[C@@H]3C2)c(F)cc2c(=O)c(C(=O)O)cn(C3CC3)c12 [Moxifloxacin]
I/E ratio (PMN): 12.0

CC1(C)SC2C(NC(=O)Cc3ccccc3)C(=O)N2C1C(=O)O (stereo not shown) [Penicillin G, 3,3-Dimethyl-7-oxo-6-phenylacetylamino-4-thia-1-aza-bicyclo[3.2.0]heptane-2-carboxylic acid]
I/E ratio (PMN): 0.16
